# Assay results from patent US9493436B2, “Tyrosine phosphatase inhibitors and uses thereof to modulate the activity of enzymes involved in the pathology of Mycobacterium tuberculosis” (priority 2011, dated 2016).
# Read-outs that look alike come from different tables or passages of the source.
# Key:
# mPTPB = biological target: T1, mPTPB (Mycobacterium tuberculosis, UniProt I6WXK4); assay: biochemical; format: biochemical; settings: for In % @ 1 μM (mPTPB): library 13 screened in situ
# T1 construct: The full-length mPTPB with a N-terminal His6-tag was expressed and purified; His6 (N); made in house; host or cells: E. coli BL21/DE3 (pET28b-mPTPB)
# T1 sequence (I6WXK4 1-276): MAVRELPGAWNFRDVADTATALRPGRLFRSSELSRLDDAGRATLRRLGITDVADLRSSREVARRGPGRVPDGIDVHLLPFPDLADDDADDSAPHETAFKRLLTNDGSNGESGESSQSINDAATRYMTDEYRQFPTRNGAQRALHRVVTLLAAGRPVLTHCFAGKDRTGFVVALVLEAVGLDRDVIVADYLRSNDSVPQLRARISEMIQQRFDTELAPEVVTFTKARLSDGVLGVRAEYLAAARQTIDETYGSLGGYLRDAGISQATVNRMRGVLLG
# Lyp = biological target: T2, Lyp (Homo sapiens, UniProt Q9Y2R2); assay: biochemical; format: biochemical
# T2 sequence (Q9Y2R2 1-807): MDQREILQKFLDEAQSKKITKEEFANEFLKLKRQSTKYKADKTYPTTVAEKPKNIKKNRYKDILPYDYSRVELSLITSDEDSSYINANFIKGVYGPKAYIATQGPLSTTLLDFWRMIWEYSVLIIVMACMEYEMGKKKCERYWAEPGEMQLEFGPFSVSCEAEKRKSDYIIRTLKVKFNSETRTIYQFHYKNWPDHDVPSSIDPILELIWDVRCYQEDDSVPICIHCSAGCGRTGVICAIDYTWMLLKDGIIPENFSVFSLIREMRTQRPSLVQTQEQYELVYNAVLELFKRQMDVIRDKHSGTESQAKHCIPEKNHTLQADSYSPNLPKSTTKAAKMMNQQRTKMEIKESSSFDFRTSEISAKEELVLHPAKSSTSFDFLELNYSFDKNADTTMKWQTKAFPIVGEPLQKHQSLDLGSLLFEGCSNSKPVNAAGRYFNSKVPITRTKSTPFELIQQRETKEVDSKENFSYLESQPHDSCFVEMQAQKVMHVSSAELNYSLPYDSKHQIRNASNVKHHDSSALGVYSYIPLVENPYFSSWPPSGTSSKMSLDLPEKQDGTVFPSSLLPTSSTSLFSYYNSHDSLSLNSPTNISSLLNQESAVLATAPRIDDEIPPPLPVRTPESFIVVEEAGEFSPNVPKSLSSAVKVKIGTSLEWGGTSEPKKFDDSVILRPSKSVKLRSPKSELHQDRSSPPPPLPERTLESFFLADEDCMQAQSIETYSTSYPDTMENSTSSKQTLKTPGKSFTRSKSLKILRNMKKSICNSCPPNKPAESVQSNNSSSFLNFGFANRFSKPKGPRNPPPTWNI
# [1] = pNPP substrate, pH 7.0, 25° C., read-out: IC50 (μM) against mPTPB
Structure (SMILES),IC50 (mPTPB; [1]) [µM],also measured
"Cn1c(-c2ccccc2C(F)(F)F)c(C#Cc2ccc(C(F)(F)F)cc2)c2cc(C(=O)O)c(O)cc21 [Compound 209e, 6-hydroxy-1-methyl-2-(2-(trifluoromethyl)phenyl)-3-((4-(trifluoromethyl)phenyl)ethynyl)-1H-indole-5-carboxylic acid]",0.6 ± 0.1,
"Cn1c(-c2ccc(C(F)(F)F)cc2)c(I)c2cc(C(=O)O)c(O)cc21 [Compound 207f, 6-hydroxy-3-iodo-1-methyl-2-(4-(trifluoromethyl)phenyl)-1H-indole-5-carboxylic acid]",7 ± 1,
"Cn1c(-c2ccccc2C(F)(F)F)c(C(=O)CCNC(=O)c2cccc(I)c2)c2cc(C(=O)O)c(O)cc21 [Compound 213b, 6-hydroxy-3-(3-(3-iodobenzamido)propanoyl)-1-methyl-2-(2-(trifluoromethyl)phenyl)-1H-indole-5-carboxylic acid]",0.68 ± 0.04,In % @ 1 μM (mPTPB) (mPTPB): 52%
O=C(O)c1cc2c(C#Cc3cccc(Cl)c3)c(-c3ccc(OC(F)(F)F)cc3)oc2cc1O [36 (L73Z01)],0.082,
"Cn1c(-c2ccc(OC(F)(F)F)cc2)c(I)c2cc(C(=O)O)c(O)cc21 [Compound 207e, 6-hydroxy-3-iodo-1-methyl-2-(4-(trifluoromethoxy)phenyl)-1H-indole-5-carboxylic acid]",5.5 ± 0.5,
"CC(C)[C@H]1CC[C@H](C)C[C@@H]1OCC(=O)NCCC(=O)c1c(-c2ccccc2C(F)(F)F)n(C)c2cc(O)c(C(=O)O)cc12 [Compound 213c, 6-hydroxy-3-(3-(2-(((1S,2R,5S)-2-isopropyl-5-methylcyclohexyl)oxy)acetamido)propanoyl)-1-methyl-2-(2-(trifluoromethyl)phenyl)-1H-indole-5-carboxylic acid]",3.3 ± 0.1,In % @ 1 μM (mPTPB) (mPTPB): 5%
C#Cc1c(-c2ccc(-c3ccccc3)cc2)oc2cc(O)c(C(=O)O)cc12 [41 (Core71)],0.85,
"Cn1c(C2CCCCC2)c(I)c2cc(C(=O)O)c(O)cc21 [Compound 207d, 2-cyclohexyl-6-hydroxy-3-iodo-1-methyl-1H-indole-5-carboxylic acid]",3.6 ± 0.1,
"Cn1c(-c2ccccc2C(F)(F)F)c(C#Cc2ccc(Oc3ccccc3)cc2)c2cc(C(=O)O)c(O)cc21 [Compound 209d, 6-hydroxy-1-methyl-3-((4-phenoxyphenyl)ethynyl)-2-(2-(trifluoromethyl)phenyl)-1H-indole-5-carboxylic acid]",0.46 ± 0.06,
"Cn1c(-c2ccccc2C(F)(F)F)c(C#Cc2ccc(OC(F)(F)F)cc2)c2cc(C(=O)O)c(O)cc21 [Compound 209f, 6-hydroxy-1-methyl-3-((4-(trifluoromethoxy)phenyl)ethynyl)-2-(2-(trifluoromethyl)phenyl)-1H-indole-5-carboxylic acid]",0.85 ± 0.2,
"Cn1c(-c2cccc(C(F)(F)F)c2)c(I)c2cc(C(=O)O)c(O)cc21 [Compound 207b, 6-hydroxy-3-iodo-1-methyl-2-(3-(trifluoromethyl)phenyl)-1H-indole-5-carboxylic acid]",2.2 ± 0.2,
"Cn1c(-c2cccc(O)c2)c(I)c2cc(C(=O)O)c(O)cc21 [Compound 207k, 6-hydroxy-2-(3-hydroxyphenyl)-3-iodo-1-methyl-1H-indole-5-carboxylic acid]",18 ± 1,
O=C(O)c1cc2c(C#Cc3ccsc3)c(-c3ccc(OC(F)(F)F)cc3)oc2cc1O [38 (L73Z03)],0.35,
O=C(O)c1cc2c(C=Cc3cc(F)cc(F)c3)c(-c3ccccc3)oc2cc1O [43 (L01Z25)],1.2,
O=C(O)c1cc2c(C=Cc3cccc(C(F)(F)F)c3)c(-c3ccccc3)oc2cc1O [44 (L01X09)],1.2,
"Cn1c(-c2ccccc2C(F)(F)F)c(C#Cc2cccc(C(F)(F)F)c2)c2cc(C(=O)O)c(O)cc21 [Compound 209b, 6-hydroxy-1-methyl-2-(2-(trifluoromethyl)phenyl)-3-((3-(trifluoromethyl)phenyl)ethynyl)-1H-indole-5-carboxylic acid]",0.23 ± 0.04,
O=C(O)c1cc2c(C#Cc3ccc(Cl)c(Cl)c3)c(-c3ccc(OC(F)(F)F)cc3)oc2cc1O [37 (L73Z02)],0.12,

Structure (SMILES),IC50 (mPTPB; [1]) [µM],also measured
O=C(O)COc1ccc(-c2oc3cc(O)c(C(=O)O)cc3c2C#Cc2cccc(Cl)c2)cc1 [50 (Core 75)],0.101,IC50 (Lyp): 7.6 ± 0.4 µM; loss of activity compare with compound 133 for Lyp (Lyp): 7.8 fold
O=C(O)COc1cccc(C#Cc2c(-c3ccc(OC(F)(F)F)cc3)oc3cc(O)c(C(=O)O)cc23)c1 [39 (L73Z05)],0.19,
"Cn1c(-c2ccccc2)c(I)c2cc(C(=O)O)c(O)cc21 [Compound 207g, 6-hydroxy-3-iodo-1-methyl-2-phenyl-1H-indole-5-carboxylic acid]",11 ± 1,
"Cn1c(-c2ccc(-c3ccccc3)cc2)c(I)c2cc(C(=O)O)c(O)cc21 [Compound 207c, 2-([1,1′-biphenyl]-4-yl)-6-hydroxy-3-iodo-1-methyl-1H-indole-5-carboxylic acid]",2.4 ± 0.2,
C#Cc1c(-c2ccc(Oc3ccccc3)cc2)oc2cc(O)c(C(=O)O)cc12 [40 (Core69)],2.3,
C#Cc1c(-c2cccc(Cl)c2)oc2cc(O)c(C(=O)O)cc12 [42 (Core72)],3.1,
"Cn1c(-c2ccc(F)cc2)c(I)c2cc(C(=O)O)c(O)cc21 [Compound 207i, 2-(4-fluorophenyl)-6-hydroxy-3-iodo-1-methyl-1H-indole-5-carboxylic acid]",12 ± 2,
CC(C)c1ccc(NC(=O)COc2cccc(-c3oc4cc(O)c(C(=O)O)cc4c3C#Cc3cccc(Cl)c3)c2)cc1,,IC50 (mPTPB; read-out: IC50 for mPTPB): ~0.025 µM
"Cn1c(-c2ccccc2C(F)(F)F)c(C#Cc2ccccc2C(F)(F)F)c2cc(C(=O)O)c(O)cc21 [Compound 209c, 6-hydroxy-1-methyl-2-(2-(trifluoromethyl)phenyl)-3-((2-(trifluoromethyl)phenyl)ethynyl)-1H-indole-5-carboxylic acid]",0.3 ± 0.05,
O=C(O)COc1cccc(-c2oc3cc(O)c(C(=O)O)cc3c2C#Cc2cccc(Cl)c2)c1 [49 (Core 74)],0.076,loss of activity compare with compound 133 for Lyp (Lyp): 15 fold
"Cn1c(-c2ccccc2C(F)(F)F)c(C(=O)CCNC(=O)c2ccc3nc(-c4ccccc4Br)[nH]c3c2)c2cc(C(=O)O)c(O)cc21 [Compound 213d, 3-(3-(2-(2-bromophenyl)-1H-benzo[d]imidazole-6-carboxamido)propanoyl)-6-hydroxy-1-methyl-2-(2-(trifluoromethyl)phenyl)-1H-indole-5-carboxylic acid]",5.2 ± 0.2,In % @ 1 μM (mPTPB) (mPTPB): 10%
"CC(=O)NCCC(=O)c1c(-c2ccccc2C(F)(F)F)n(C)c2cc(O)c(C(=O)O)cc12 [Compound 213e, 3-(3-acetamidopropanoyl)-6-hydroxy-1-methyl-2-(2-(trifluoromethyl)phenyl)-1H-indole-5-carboxylic acid]",> 20,In % @ 1 μM (mPTPB) (mPTPB): 0%
"Cn1c(-c2cccc(F)c2)c(I)c2cc(C(=O)O)c(O)cc21 [Compound 207h, 2-(3-fluorophenyl)-6-hydroxy-3-iodo-1-methyl-1H-indole-5-carboxylic acid]",11 ± 1,
O=C(O)c1cc2c(C#Cc3ccc(Oc4ccccc4)cc3)c(-c3ccccc3)oc2cc1O [34 (L01Z12)],0.043,
C#Cc1c(-c2ccc(OC(F)(F)F)cc2)oc2cc(O)c(C(=O)O)cc12 [35 (Core73)],1.71,
"Cn1c(-c2ccccc2F)c(I)c2cc(C(=O)O)c(O)cc21 [Compound 207j, 2-(2-fluorophenyl)-6-hydroxy-3-iodo-1-methyl-1H-indole-5-carboxylic acid]",16 ± 2,
